The source of these data is BindingDB's records for doi:10.1021/acschembio.5b00817 (University of Leipzig, 2015).

A word on the pIC50: it is the negative decadic logarithm of the IC50, by convention in mol/L. A word on the pKi: it is −log10 of the Ki, conventionally taken in molar units. Lower therefore signals a large Ki.

The target of assay [1] is T1, Signal transducer and activator of transcription 5A (Homo sapiens, UniProt P42229).
T1 sequence (P42229 whole entry): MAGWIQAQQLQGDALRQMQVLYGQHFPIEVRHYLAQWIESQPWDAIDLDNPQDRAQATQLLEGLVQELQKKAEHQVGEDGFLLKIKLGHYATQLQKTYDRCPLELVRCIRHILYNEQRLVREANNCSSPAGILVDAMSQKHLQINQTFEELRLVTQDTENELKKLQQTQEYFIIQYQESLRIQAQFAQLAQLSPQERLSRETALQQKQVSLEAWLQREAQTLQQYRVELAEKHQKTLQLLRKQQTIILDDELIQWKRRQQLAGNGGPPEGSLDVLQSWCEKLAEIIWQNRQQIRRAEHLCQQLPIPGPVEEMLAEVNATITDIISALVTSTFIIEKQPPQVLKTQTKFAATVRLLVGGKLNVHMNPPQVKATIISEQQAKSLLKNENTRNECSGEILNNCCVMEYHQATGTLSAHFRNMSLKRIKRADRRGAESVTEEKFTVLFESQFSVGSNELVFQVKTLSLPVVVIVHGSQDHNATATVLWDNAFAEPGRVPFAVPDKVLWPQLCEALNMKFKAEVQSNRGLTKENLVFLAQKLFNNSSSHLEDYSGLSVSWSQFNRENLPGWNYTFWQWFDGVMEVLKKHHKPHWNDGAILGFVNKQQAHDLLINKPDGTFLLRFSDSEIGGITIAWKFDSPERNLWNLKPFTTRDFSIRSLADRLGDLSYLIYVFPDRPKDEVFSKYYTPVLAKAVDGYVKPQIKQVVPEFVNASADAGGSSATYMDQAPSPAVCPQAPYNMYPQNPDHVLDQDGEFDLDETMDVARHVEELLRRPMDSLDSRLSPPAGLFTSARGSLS
Briefly: Fluorescence Polarization Assay. On the procedure: (§1) For competition-based fluorescence polarization assays, the ability of the test compounds to displace fluorophore-labeled peptides from their respective binding proteins was analyzed as previously described.3 Peptide sequences were: STAT1: 5-carboxyfluorescein-GY(PO3H2)DKPHVL; STAT3: 5-carboxyfluorescein-GY(PO3H2)LPQTV-NH2; STAT4: 5-carboxyfluorescein-GY(PO3H2)LPQNID-OH; STAT5a and STAT5b: 5-carboxyfluorescein-GY(PO3H2)LVLDKW; STAT6: 5-carboxyfluorescein-GY(PO3H2)VPWQDLI-OH; Lck SH2: 5-carboxyfluorescein-GY(PO3H2)EEIP. Due to protein instability, STAT2 was not analyzed. Final concentration of 5-carboxyfluorescein-labeled peptides: 10 nM. […] Pipetting was carried out partly using a Biomek FX workstation (Beckman-Coulter). Pr
For orientation: In fluorescence polarisation assays a small probe gives low polarisation when free and higher when bound to something large.

Assay [2] deals with T2, Signal transducer and activator of transcription 5B (Homo sapiens, UniProt P51692).
T2 sequence (P51692 whole entry): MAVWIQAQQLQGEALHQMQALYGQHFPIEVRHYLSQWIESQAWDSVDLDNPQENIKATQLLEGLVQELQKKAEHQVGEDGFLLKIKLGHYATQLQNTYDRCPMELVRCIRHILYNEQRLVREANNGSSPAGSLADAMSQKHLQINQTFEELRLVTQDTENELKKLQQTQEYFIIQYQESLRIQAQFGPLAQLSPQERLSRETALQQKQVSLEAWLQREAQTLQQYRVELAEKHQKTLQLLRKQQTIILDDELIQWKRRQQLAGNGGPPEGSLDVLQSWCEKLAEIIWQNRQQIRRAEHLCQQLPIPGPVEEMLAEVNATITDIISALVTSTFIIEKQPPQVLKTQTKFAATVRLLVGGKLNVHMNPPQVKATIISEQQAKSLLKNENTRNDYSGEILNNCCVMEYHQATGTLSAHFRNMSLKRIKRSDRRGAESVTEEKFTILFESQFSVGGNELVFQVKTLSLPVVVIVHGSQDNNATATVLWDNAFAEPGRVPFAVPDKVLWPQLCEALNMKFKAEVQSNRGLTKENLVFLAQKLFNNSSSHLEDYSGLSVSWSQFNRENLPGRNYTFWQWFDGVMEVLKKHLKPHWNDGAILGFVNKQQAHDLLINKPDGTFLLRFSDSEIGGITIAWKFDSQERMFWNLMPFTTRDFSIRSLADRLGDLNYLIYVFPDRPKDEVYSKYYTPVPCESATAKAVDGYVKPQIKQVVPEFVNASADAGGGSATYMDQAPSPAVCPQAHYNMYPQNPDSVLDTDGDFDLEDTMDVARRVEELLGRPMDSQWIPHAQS
Briefly: Fluorescence Polarization Assay. On the procedure: as §1

pIC50, pKi: −log10 of the molar value.

As for `COc1cc(CNC(=O)CCCCCCC(C)C)ccc1OP(=O)(O)O` [2-Methoxy-4-((8-methylnonanamido)methyl)phenyl dihydrogen phosphate (3a)], in assay [1], the pIC50 was 3.82 and the pKi is 4.12.
Take `CCCCCCCCC(=O)NCc1ccc(OP(=O)(O)O)c(OP(=O)(O)O)c1` [4-(Nonanamidomethyl)-1,2-phenylene bis(dihydrogen phosphate) (6b)]: in assay [1], the pIC50 was 4.60 and the pKi is 4.91. In assay [2], this molecule had a pIC50 of 6.07 and a pKi of 6.41.
In assay [1], `CCCCCCCCC(=O)NCc1ccc(OP(=O)(O)O)c(OC)c1` [2-Methoxy-4-(nonanamidomethyl)phenyl dihydrogen phosphate (3b)] had a pIC50 of 4.01 and a pKi of 4.31. In assay [2], this molecule had a pIC50 of 3.71 and a pKi of 4.02.
As to `CC(C)CCCCCCC(=O)NCc1ccc(OP(=O)(O)O)c(OP(=O)(O)O)c1` [4-((8-Methylnonanamido)methyl)-1,2-phenylene bis(dihydrogen phosphate) (6a)], in assay [1], the pIC50 was 4.58 and the pKi is 4.89. In assay [2], this molecule showed a pIC50 of 6.12 and a pKi of 6.47.
